Source: paper PMC4503722, “Novel Phenotypic Outcomes Identified for a Public Collection of Approved Drugs from a Publicly Accessible Panel of Assays” (PLoS ONE, 2015)
Read-outs that look alike come from different tables or passages of the source.

Legend:
[1] = tested on: nuclear β-catenin in C2C12 cells; test: cells; format: cell-based; details: Mus musculus
SW480 = test: cells; format: cell-based; details: Homo sapiens
hFLT3 = target: T1, hFLT3 (Homo sapiens, UniProt P36888); test: Cerep LANCE kinase assay hFLT3 (S1 assay 35); format: biochemical; details: for IC50: read-out: FLT3
T1 construct: purchased Cerep (LANCE kinase assay platform, contract assay)
T1 sequence (P36888 27-993): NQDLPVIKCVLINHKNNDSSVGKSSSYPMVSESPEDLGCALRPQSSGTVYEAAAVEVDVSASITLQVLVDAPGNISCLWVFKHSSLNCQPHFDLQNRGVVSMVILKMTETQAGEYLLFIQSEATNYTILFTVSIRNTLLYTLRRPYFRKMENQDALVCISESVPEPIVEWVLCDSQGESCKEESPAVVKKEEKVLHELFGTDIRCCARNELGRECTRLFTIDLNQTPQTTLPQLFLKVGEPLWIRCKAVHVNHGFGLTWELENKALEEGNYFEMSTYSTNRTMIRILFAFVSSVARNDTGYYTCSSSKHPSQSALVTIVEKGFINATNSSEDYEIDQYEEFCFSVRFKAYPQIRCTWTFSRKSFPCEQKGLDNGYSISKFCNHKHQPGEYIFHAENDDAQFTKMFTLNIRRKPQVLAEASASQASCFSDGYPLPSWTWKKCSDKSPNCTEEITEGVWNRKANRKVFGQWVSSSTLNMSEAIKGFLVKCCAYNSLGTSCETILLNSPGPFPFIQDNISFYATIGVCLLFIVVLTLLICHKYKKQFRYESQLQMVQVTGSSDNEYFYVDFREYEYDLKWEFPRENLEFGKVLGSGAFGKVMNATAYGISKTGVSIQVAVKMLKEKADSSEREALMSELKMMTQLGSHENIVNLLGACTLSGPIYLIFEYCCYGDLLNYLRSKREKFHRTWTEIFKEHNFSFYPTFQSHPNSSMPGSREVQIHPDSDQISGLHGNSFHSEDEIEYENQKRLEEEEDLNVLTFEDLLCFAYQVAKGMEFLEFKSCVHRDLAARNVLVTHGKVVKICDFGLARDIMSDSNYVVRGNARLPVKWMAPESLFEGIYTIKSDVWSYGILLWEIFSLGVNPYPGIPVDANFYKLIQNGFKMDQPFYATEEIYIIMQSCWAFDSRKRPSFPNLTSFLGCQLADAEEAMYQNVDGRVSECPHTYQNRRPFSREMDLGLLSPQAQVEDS

hKDR = target: T2, hKDR (Homo sapiens, UniProt P35968); test: Cerep LANCE kinase assay hKDR (S1 assay 32); format: biochemical; details: for IC50: read-out: KDR
T2 construct: purchased Cerep (LANCE kinase assay platform, contract assay)
T2 sequence (P35968 20-1356): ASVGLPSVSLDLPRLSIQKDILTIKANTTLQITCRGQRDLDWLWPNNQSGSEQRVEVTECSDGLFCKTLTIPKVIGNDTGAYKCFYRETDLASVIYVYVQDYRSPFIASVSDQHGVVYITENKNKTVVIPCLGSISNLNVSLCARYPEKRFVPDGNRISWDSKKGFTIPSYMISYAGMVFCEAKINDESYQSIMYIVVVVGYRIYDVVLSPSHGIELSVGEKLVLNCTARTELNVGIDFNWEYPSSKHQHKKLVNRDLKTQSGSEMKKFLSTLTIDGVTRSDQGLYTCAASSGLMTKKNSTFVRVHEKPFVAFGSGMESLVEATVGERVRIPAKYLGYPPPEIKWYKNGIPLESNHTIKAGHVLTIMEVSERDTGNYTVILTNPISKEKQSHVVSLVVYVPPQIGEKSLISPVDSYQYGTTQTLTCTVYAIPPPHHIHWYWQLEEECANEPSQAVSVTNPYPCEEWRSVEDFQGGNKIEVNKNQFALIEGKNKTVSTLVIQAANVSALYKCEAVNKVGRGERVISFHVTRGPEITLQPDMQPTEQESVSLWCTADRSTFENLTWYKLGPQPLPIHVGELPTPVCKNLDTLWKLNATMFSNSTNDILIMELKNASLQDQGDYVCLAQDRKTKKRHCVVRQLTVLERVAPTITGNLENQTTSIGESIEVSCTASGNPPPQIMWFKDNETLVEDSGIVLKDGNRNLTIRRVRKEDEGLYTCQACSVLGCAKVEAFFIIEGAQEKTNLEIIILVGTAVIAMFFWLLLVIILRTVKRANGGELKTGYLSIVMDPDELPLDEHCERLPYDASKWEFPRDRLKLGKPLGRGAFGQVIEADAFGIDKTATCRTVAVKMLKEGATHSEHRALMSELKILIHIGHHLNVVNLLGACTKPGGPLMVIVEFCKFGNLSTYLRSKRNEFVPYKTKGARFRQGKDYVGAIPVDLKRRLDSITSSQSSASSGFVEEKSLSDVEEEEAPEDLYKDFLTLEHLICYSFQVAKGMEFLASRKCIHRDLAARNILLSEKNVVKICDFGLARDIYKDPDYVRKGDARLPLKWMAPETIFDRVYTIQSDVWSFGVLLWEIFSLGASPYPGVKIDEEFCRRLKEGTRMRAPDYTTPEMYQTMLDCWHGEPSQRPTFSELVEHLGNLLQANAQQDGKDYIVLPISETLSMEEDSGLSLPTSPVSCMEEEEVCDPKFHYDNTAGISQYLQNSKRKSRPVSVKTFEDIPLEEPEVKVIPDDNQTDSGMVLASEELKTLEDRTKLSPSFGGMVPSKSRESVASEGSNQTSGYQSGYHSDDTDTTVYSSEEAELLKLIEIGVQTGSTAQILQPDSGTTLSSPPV

[2] = tested on: endothelial tube formation in co-cultures of ECFCs and ADSCs treated with VEGF; test: cells; format: cell-based, human; details: for IC50: Homo sapiens
HCT116 = test: cells; format: cell-based; details: Homo sapiens
INS-1E cells = test: cells; format: cell-based, rat; details: Rattus norvegicus, INS-1E
hGSK3b = target: T3, hGSK3b (Homo sapiens, UniProt P49841); test: Cerep LANCE kinase assay hGSK3b (S1 assay 34); format: biochemical; details: for IC50: read-out: GSK3b
T3 construct: purchased Cerep (LANCE kinase assay platform, contract assay)
T3 sequence (P49841 whole entry): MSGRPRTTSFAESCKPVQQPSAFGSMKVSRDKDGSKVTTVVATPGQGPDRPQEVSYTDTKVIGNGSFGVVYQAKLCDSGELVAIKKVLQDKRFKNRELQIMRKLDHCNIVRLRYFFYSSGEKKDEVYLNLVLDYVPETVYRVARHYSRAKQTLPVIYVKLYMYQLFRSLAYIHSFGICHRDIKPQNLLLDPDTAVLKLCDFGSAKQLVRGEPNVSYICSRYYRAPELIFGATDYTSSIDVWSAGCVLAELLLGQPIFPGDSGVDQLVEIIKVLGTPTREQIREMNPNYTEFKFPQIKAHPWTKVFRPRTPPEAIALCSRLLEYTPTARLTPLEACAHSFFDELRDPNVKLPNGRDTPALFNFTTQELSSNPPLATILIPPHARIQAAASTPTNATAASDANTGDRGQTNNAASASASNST

NCI-H716 cells = test: cells; format: cell-based, Human; details: Homo sapiens
DLD-1 = test: cells; format: cell-based; details: Homo sapiens
hJAK2 = target: T4, hJAK2 (Homo sapiens, UniProt O60674); test: Cerep LANCE kinase assay hJAK2 (S1 assay 33); format: biochemical; details: for IC50: read-out: JAK2
T4 construct: purchased Cerep (LANCE kinase assay platform, contract assay)
T4 sequence (O60674 whole entry): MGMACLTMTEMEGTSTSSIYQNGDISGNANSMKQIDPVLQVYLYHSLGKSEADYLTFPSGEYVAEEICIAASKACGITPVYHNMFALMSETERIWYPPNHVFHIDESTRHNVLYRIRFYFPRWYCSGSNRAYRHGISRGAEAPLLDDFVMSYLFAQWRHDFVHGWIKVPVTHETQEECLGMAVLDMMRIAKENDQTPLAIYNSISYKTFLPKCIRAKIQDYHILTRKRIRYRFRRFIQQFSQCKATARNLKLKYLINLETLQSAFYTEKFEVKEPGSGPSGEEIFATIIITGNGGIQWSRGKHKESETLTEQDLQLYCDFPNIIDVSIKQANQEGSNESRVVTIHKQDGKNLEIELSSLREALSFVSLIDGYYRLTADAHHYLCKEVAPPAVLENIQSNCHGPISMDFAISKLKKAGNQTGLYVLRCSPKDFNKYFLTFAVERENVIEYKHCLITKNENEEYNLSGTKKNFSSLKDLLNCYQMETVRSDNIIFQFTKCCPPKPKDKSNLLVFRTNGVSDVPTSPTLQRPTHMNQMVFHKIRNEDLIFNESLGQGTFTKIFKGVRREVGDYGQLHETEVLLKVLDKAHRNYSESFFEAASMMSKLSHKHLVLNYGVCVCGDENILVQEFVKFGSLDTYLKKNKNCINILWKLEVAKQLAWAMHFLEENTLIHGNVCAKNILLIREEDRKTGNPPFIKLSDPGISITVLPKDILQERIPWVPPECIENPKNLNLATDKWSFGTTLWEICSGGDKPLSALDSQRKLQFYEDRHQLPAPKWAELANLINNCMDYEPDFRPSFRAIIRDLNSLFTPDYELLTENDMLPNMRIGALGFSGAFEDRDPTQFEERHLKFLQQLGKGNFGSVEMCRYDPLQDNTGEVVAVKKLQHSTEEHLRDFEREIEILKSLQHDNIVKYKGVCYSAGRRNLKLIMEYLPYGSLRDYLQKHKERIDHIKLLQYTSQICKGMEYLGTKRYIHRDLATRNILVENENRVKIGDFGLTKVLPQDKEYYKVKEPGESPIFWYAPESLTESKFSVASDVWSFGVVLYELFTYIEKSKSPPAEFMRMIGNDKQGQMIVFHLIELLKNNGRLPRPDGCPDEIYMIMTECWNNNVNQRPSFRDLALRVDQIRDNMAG

[3] = tested on: HCT116 cells treated with a GSK3β inhibitor; test: cells; format: cell-based; details: Homo sapiens
HeLa cells = test: cells; format: cell-based; details: Homo sapiens, HeLa, read-out: CellCycle G2/M
hp70S6K1 (RPS6KB1) = target: T5, hp70S6K1 (RPS6KB1) (Homo sapiens, UniProt P23443); test: Cerep LANCE kinase assay hp70S6K1 (S1 assay 31); format: biochemical; details: for IC50: read-out: p70S6K1
T5 construct: purchased Cerep (LANCE kinase assay platform, contract assay)
T5 sequence (P23443 whole entry): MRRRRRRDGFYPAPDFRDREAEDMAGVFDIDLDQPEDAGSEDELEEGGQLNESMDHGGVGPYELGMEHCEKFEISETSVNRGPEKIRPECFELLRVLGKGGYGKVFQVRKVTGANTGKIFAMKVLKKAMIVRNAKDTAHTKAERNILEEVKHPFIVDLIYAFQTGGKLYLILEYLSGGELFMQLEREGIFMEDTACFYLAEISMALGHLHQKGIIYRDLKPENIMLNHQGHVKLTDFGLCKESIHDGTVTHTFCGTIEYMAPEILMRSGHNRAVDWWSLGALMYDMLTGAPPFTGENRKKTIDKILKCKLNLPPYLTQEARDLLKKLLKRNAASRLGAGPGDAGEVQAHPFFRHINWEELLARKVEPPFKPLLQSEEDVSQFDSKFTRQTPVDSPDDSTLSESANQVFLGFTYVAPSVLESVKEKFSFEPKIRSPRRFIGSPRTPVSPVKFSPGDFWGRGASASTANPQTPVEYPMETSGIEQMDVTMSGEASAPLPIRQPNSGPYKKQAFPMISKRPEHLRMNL

[4] = SW480, read-out: Basal_Viability ATP SW480
[5] = HCT-116, read-out: Basal_Viability ATP HCT116
[6] = NCI-H716, read-out: GLP 1 Secretion
[7] = DLD-1, read-out: Basal_Viability ATP DLD-1
[8] = HCT-116, read-out: GSK3b inh pretreated_Viability ATP HCT116
[9] = SW480, 72 h, read-out: SW480 viab. IC50
[10] = HCT-116, 72 h, read-out: HCT-116 viab. IC50
[11] = NCI-H716, read-out: GLP1 sec. EC50
[12] = DLD-1, 72 h, read-out: DLD-1 viab. IC50
[13] = HCT-116, 72 h, read-out: HCT-116 (GSK3β) viab. IC50

COc1cc(-c2ccc(=O)[nH]n2)ccc1OC(F)F [Zardaverine]
EC50 ([1]; C2C12, read-out: Wnt Pathway): > 10 µM
IC50 (SW480; [4]): > 20 µM
IC50 (hFLT3; kinase assay): > 20 µM
IC50 (hKDR; kinase assay): > 20 µM
IC50 ([2]; read-out: Anti-Angiogenesis): 1.22 µM
IC50 (HCT116; [5]): > 20 µM
EC50 (INS-1E cells; read-out: Insulin Secretion): > 10 µM
IC50 (hGSK3b; kinase assay): > 20 µM
EC50 (NCI-H716 cells; [6]): > 10 µM
IC50 (DLD-1; [7]): > 20 µM
IC50 (hJAK2; kinase assay): > 20 µM
IC50 [3, 8]: > 20 µM
EC50 (HeLa cells): > 10 µM
IC50 (hp70S6K1 (RPS6KB1); kinase assay): > 20 µM

CCCCCCCCCCCCCCCCNc1ccc(C(=O)O)cc1 [cetaben sodium, sodium p-(hexadecylamino) benzoate, reference compound]
EC50 ([1]; C2C12, read-out: Wnt pot. EC50): > 10 µM
IC50 (SW480; [9]): 4.4 µM
IC50 (SW480; [4]): 4.39 µM
inhibition of FLT3 activity (in words) (hFLT3): does not inhibit
IC50 (hFLT3): > 20 µM
inhibition of KDR activity (in words) (hKDR): does not inhibit
IC50 (hKDR): > 20 µM
inhibition of endothelial tube / cord formation (in words) [2]: uniquely inhibited endothelial cord formation
IC50 ([2]; read-out: Anti-Angio IC50): 0.37 µM
IC50 ([2]; read-out: Anti-Angiogenesis): 0.367 µM
IC50 (HCT116; [10]): > 20 µM
EC50 (INS-1E cells; read-out: Ins. sec. EC50): > 10 µM
inhibition of GSK3β activity (in words) (hGSK3b): does not inhibit
IC50 (hGSK3b): > 20 µM
EC50 (NCI-H716 cells; [11]): > 10 µM
IC50 (DLD-1; [12]): 10.6 µM
IC50 (DLD-1; [7]): 10.6 µM
inhibition of JAK2 activity (in words) (hJAK2): does not inhibit
IC50 (hJAK2): > 20 µM
IC50 [3, 13]: 7.4 µM
IC50 [3, 8]: 7.41 µM
EC50 (HeLa cells): > 10 µM
inhibition of RPS6KB1 activity (in words) (hp70S6K1 (RPS6KB1)): does not inhibit
IC50 (hp70S6K1 (RPS6KB1)): > 20 µM

CCC(C)n1ncn(-c2ccc(N3CCN(c4ccc(OCC5COC(Cn6cncn6)(c6ccc(Cl)cc6Cl)O5)cc4)CC3)cc2)c1=O (stereo not drawn) [itraconazole]
EC50 ([1]; C2C12, read-out: Wnt Pathway): > 10 µM
IC50 (SW480; [4]): 4.33 µM
IC50 (hFLT3): > 20 µM
IC50 (hKDR): > 20 µM
IC50 ([2]; read-out: Anti-Angiogenesis): 1.55 µM
IC50 (HCT116; [5]): 8.85 µM
EC50 (INS-1E cells; read-out: Insulin Secretion): > 10 µM
IC50 (hGSK3b): > 20 µM
EC50 (NCI-H716 cells; [6]): > 10 µM
IC50 (DLD-1; [7]): > 20 µM
IC50 (hJAK2): > 20 µM
IC50 [3, 8]: 8.69 µM
EC50 (HeLa cells): > 10 µM
IC50 (hp70S6K1 (RPS6KB1)): > 20 µM

CSc1ccc2c(c1)C(N1CCN(C)CC1)Cc1ccccc1S2 (stereo not drawn) [metitepine, reference compound]
EC50 ([1]; C2C12, read-out: Wnt pot. EC50): > 20 µM
IC50 (SW480; [9]): 1.9 µM
IC50 (SW480; [4]): 1.9 µM
IC50 (hFLT3): > 20 µM
IC50 (hKDR): > 20 µM
IC50 ([2]; read-out: Anti-Angio IC50): > 10 µM
IC50 (HCT116; [10]): 3.8 µM
IC50 (HCT116; [5]): 3.77 µM
EC50 (INS-1E cells; read-out: Ins. sec. EC50): 2.9 µM
EC50 (INS-1E cells; read-out: Insulin Secretion): 2.94 µM
IC50 (hGSK3b): > 20 µM
EC50 (NCI-H716 cells; [11]): > 10 µM
IC50 (DLD-1; [12]): 4.4 µM
IC50 (DLD-1; [7]): 4.39 µM
IC50 (hJAK2): > 20 µM
IC50 [3, 13]: 4.6 µM
IC50 [3, 8]: 4.57 µM
EC50 (HeLa cells): > 10 µM
IC50 (hp70S6K1 (RPS6KB1)): > 20 µM

CC[C@@H]([C@H](C)O)n1ncn(-c2ccc(N3CCN(c4ccc(OC[C@@H]5CO[C@@](Cn6cncn6)(c6ccc(F)cc6F)C5)cc4)CC3)cc2)c1=O [posaconazole]
EC50 ([1]; C2C12, read-out: Wnt Pathway): 1.63 µM
IC50 (SW480; [4]): 5.81 µM
IC50 (hFLT3): > 20 µM
IC50 (hKDR): > 20 µM
IC50 ([2]; read-out: Anti-Angiogenesis): 6.46 µM
IC50 (HCT116; [5]): 6.24 µM
EC50 (INS-1E cells; read-out: Insulin Secretion): > 10 µM
IC50 (hGSK3b): > 20 µM
EC50 (NCI-H716 cells; [6]): > 10 µM
IC50 (DLD-1; [7]): > 20 µM
IC50 (hJAK2): > 20 µM
IC50 [3, 8]: > 20 µM
EC50 (HeLa cells): > 10 µM
IC50 (hp70S6K1 (RPS6KB1)): > 20 µM

CCc1nc(N)nc(N)c1-c1ccc(Cl)cc1 [pyrimethamine, reference compound]
EC50 ([1]; C2C12, read-out: Wnt Pathway): 0.0677 µM
EC50 ([1]; C2C12, read-out: Wnt pot. EC50): 0.068 µM
IC50 (SW480; [9]): 12.5 µM
IC50 (SW480; [4]): 12.5 µM
IC50 (hFLT3; kinase assay): > 20 µM
IC50 (hKDR; kinase assay): > 20 µM
IC50 ([2]; read-out: Anti-Angio IC50): > 10 µM
IC50 (HCT116; [10]): 18.2 µM
IC50 (HCT116; [5]): 18.2 µM
EC50 (INS-1E cells; read-out: Ins. sec. EC50): > 10 µM
IC50 (hGSK3b; kinase assay): > 20 µM
EC50 (NCI-H716 cells; [11]): > 10 µM
IC50 (DLD-1; [12]): > 20 µM
IC50 (hJAK2; kinase assay): > 20 µM
IC50 [3, 13]: > 20 µM
EC50 (HeLa cells): > 10 µM
IC50 (hp70S6K1 (RPS6KB1); kinase assay): > 20 µM
